In US6355799B1, “Substituted benzene compounds, process for their preparation, and herbicidal and defoliant compositions containing them” (ISK Americas Incorporated, priority 1997, dated 2002):

Assays:
Assay type in all cases: in vivo
[1] = system: redroot pigweed (Amaranthus retroflexus, AMARE); test: Pre-emerge test, greenhouse herbicide activity screening; details: pre-emerge, 14 days after application, rating scale 0-100
Outline: (§1)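 Visual ratings on a 0-100 scale (0 no damage, 100 all plants dead) were taken at 14 days after treatment. Rates of 15-1000 g ai/ha in acetone, 187 l/ha, were sprayed onto soil one day after planting (pre-emerge) or onto 2-3 leaf plants with 0.25% v/v surfactant (post-emerge).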

[2] = system: upland rice (Oryza sp., var. Tebonnet, RICE); test: Post-emerge test, crop safety; details: post-emerge, 14 days after application, rating scale 0-100
Outline: (§2)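 Herbicidal damage is scored 0 (none) to 100 (complete plant death) two weeks after a simulated field spray. Rates span 15–1000 g ai/ha, delivered in acetone at 187 l/ha. For post-emergence treatments, plants have 2–3 leaves and the spray carries 0.25% v/v non-ionic surfactant.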

[3] = system: field corn (Zea mays L., var. Dekalb 535, CORN); test: Post-emerge test, crop safety; details: post-emerge, 14 days after application, rating scale 0-100
Outline: as §2

[4] = system: johnsongrass (Sorghum halepense, SORHA); test: Post-emerge test, greenhouse herbicide activity screening; details: post-emerge, 14 days after application, rating scale 0-100
Outline: as §1

[5] = system: ivyleaf morningglory (Ipomoea hederacea, IPOHE); test: as above; details: post-emerge, 14 days after application, rating scale 0-100
Outline: as §1

[6] = system: velvetleaf (Abutilon theophrasti, ABUTH); test: as above; details: post-emerge, 14 days after application, rating scale 0-100
Outline: as §1

[7] = system: sicklepod (Cassia obtusifolia, CASOB); test: as above; details: post-emerge, 14 days after application, rating scale 0-100
Outline: as §1

[8] = system: green foxtail (Setaria viridis, SETVI); test: as above; details: post-emerge, 14 days after application, rating scale 0-100
Outline: as §1

[9] = system: large crabgrass (Digitaria sanguinalis, DIGSA); test: as above; details: post-emerge, 14 days after application, rating scale 0-100
Outline: as §1

[10] = system: redroot pigweed (Amaranthus retroflexus, AMARE); test: as above; details: post-emerge, 14 days after application
Outline: as §1

[11] = system: lambsquarters (Chenopodium album, CHEAL); test: as above; details: post-emerge, 14 days after application, rating scale 0-100
Outline: as §1

[12] = system: barnyardgrass (Echinochloa crus-galli, ECHCG); test: as above; details: post-emerge, 14 days after application, rating scale 0-100
Outline: as §1

[13] = system: johnsongrass (Sorghum halepense, SORHA); test: Pre-emerge test, greenhouse herbicide activity screening; details: pre-emerge, 14 days after application, rating scale 0-100
Outline: as §2

[14] = system: ivyleaf morningglory (Ipomoea hederacea, IPOHE); test: as above; details: pre-emerge, 14 days after application, rating scale 0-100
Outline: as §2

[15] = system: velvetleaf (Abutilon theophrasti, ABUTH); test: as above; details: pre-emerge, 14 days after application, rating scale 0-100
Outline: as §2

[16] = system: sicklepod (Cassia obtusifolia, CASOB); test: as above; details: pre-emerge, 14 days after application, rating scale 0-100
Outline: as §2

[17] = system: green foxtail (Setaria viridis, SETVI); test: as above; details: pre-emerge, 14 days after application, rating scale 0-100
Outline: as §2

[18] = system: large crabgrass (Digitaria sanguinalis, DIGSA); test: as above; details: pre-emerge, 14 days after application, rating scale 0-100
Outline: as §2

[19] = system: lambsquarters (Chenopodium album, CHEAL); test: as above; details: pre-emerge, 14 days after application, rating scale 0-100
Outline: as §2

[20] = system: barnyardgrass (Echinochloa crus-galli, ECHCG); test: as above; details: pre-emerge, 14 days after application, rating scale 0-100
Outline: as §2

[21] = system: upland rice (Oryza sp., var. Tebonnet, RICE); test: Pre-emerge test, crop safety; details: pre-emerge, 14 days after application, rating scale 0-100
Outline: (§3)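 Compounds in acetone were track-sprayed at 15-1000 g ai/ha (187 l/ha) on sandy loam pots: pre-emerge one day after seeding, post-emerge at 2-3 leaf stage with 0.25% v/v non-ionic surfactant. Phytotoxicity was rated 14 days later on a 0 (no damage) to 100 (complete death) scale.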

[22] = system: field corn (Zea mays L., var. Dekalb 535, CORN); test: Pre-emerge test, crop safety; details: pre-emerge, 14 days after application, rating scale 0-100
Outline: as §3

COc1c(Cl)cc(F)c(-n2c(=O)cc(C(F)(F)F)n(C)c2=O)c1NN=CC1CC1 [Compound 15-11]
phytotoxicity rating AMARE ([1]; 63 g ai/ha): 100 | phytotoxicity rating AMARE ([1]; 250 g ai/ha): 100 | Post-emerge Herbicidal Activity RICE (crop damage rating) ([2]; 63 g ai/ha): 65 | Post-emerge Herbicidal Activity RICE (crop damage rating) ([2]; 250 g ai/ha): 99 | Post-emerge Herbicidal Activity CORN (crop damage rating) ([3]; 63 g ai/ha): 45 | Post-emerge Herbicidal Activity CORN (crop damage rating) ([3]; 250 g ai/ha): 85 | Post-emerge Herbicidal Activity SORHA (phytotoxicity rating) ([4]; 63 g ai/ha): 50 | Post-emerge Herbicidal Activity SORHA (phytotoxicity rating) ([4]; 250 g ai/ha): 99 | Post-emerge Herbicidal Activity IPOHE (phytotoxicity rating) ([5]; 63 g ai/ha): 100 | Post-emerge Herbicidal Activity IPOHE (phytotoxicity rating) ([5]; 250 g ai/ha): 100 | Post-emerge Herbicidal Activity ABUTH (phytotoxicity rating) ([6]; 63 g ai/ha): 100 | Post-emerge Herbicidal Activity ABUTH (phytotoxicity rating) ([6]; 250 g ai/ha): 100 | Post-emerge Herbicidal Activity CASOB (phytotoxicity rating) ([7]; 63 g ai/ha): 90 | Post-emerge Herbicidal Activity CASOB (phytotoxicity rating) ([7]; 250 g ai/ha): 100 | Post-emerge Herbicidal Activity SETVI (phytotoxicity rating) ([8]; 63 g ai/ha): 40 | Post-emerge Herbicidal Activity SETVI (phytotoxicity rating) ([8]; 250 g ai/ha): 80 | Post-emerge Herbicidal Activity DIGSA (phytotoxicity rating) ([9]; 63 g ai/ha): 50 | Post-emerge Herbicidal Activity DIGSA (phytotoxicity rating) ([9]; 250 g ai/ha): 95 | Post-emerge Herbicidal Activity AMARE (phytotoxicity rating) ([10]; 63 g ai/ha, rating scale 0-100 (0 no damage, 100 complete death)): 95 | Post-emerge Herbicidal Activity AMARE (phytotoxicity rating) ([10]; 250 g ai/ha, rating scale 0-100): 100 | Post-emerge Herbicidal Activity CHEAL (phytotoxicity rating) ([11]; 63 g ai/ha): 100 | Post-emerge Herbicidal Activity CHEAL (phytotoxicity rating) ([11]; 250 g ai/ha): 100 | Post-emerge Herbicidal Activity ECHCG (phytotoxicity rating) ([12]; 63 g ai/ha): 50 | Post-emerge Herbicidal Activity ECHCG (phytotoxicity rating) ([12]; 250 g ai/ha): 99 | phytotoxicity rating SORHA ([13]; 63 g ai/ha): 100 | phytotoxicity rating SORHA ([13]; 250 g ai/ha): 100 | phytotoxicity rating IPOHE ([14]; 63 g ai/ha): 100 | phytotoxicity rating IPOHE ([14]; 250 g ai/ha): 100 | phytotoxicity rating ABUTH ([15]; 63 g ai/ha): 100 | phytotoxicity rating ABUTH ([15]; 250 g ai/ha): 100 | phytotoxicity rating CASOB ([16]; 63 g ai/ha): 100 | phytotoxicity rating CASOB ([16]; 250 g ai/ha): 100 | phytotoxicity rating SETVI ([17]; 63 g ai/ha): 100 | phytotoxicity rating SETVI ([17]; 250 g ai/ha): 100 | phytotoxicity rating DIGSA ([18]; 63 g ai/ha): 100 | phytotoxicity rating DIGSA ([18]; 250 g ai/ha): 100 | phytotoxicity rating CHEAL ([19]; 63 g ai/ha): 100 | phytotoxicity rating CHEAL ([19]; 250 g ai/ha): 100 | phytotoxicity rating ECHCG ([20]; 63 g ai/ha): 100 | phytotoxicity rating ECHCG ([20]; 250 g ai/ha): 100 | phytotoxicity rating RICE ([21]; 63 g ai/ha): 100 | phytotoxicity rating RICE ([21]; 250 g ai/ha): 100 | phytotoxicity rating CORN ([22]; 63 g ai/ha): 100 | phytotoxicity rating CORN ([22]; 250 g ai/ha): 100
